Assay results as given in ChEMBL document CHEMBL5154726, “Identification of triazolopyridine derivatives as a new class of AhR agonists and evaluation of anti-psoriasis effect in a mouse model” (Eur J Med Chem, 2022).
Converted amounts (≈) assume the structure as drawn. The source made the active and inactive calls. The calls are words filed in the database; no cut-off is given here.

Experiments:
[1] = target: NAD(P)H dehydrogenase [quinone] 1 (Homo sapiens) (UniProt P15559); assay: Activation of NQO1 expression in human HaCaT cells up to 10 uM by qRT-PCR analysis; format: cell-based; details: filed as activator
[2] = Volume of distribution at steady state in Sprague-Dawley rat at 5 mg/kg, iv measured up to 24 hrs by LC-MS/MS analysis; format: ADME, organism-based; details: in vivo, read-out: Vdss
[3] = target: T1, Aryl hydrocarbon receptor (Homo sapiens, UniProt P35869); assay: Induction of Ahr signalling in human HaCaT cells assessed as upregulation of HRNR expression incubated for 48 hrs; format: cell-based
T1 sequence (P35869 whole entry): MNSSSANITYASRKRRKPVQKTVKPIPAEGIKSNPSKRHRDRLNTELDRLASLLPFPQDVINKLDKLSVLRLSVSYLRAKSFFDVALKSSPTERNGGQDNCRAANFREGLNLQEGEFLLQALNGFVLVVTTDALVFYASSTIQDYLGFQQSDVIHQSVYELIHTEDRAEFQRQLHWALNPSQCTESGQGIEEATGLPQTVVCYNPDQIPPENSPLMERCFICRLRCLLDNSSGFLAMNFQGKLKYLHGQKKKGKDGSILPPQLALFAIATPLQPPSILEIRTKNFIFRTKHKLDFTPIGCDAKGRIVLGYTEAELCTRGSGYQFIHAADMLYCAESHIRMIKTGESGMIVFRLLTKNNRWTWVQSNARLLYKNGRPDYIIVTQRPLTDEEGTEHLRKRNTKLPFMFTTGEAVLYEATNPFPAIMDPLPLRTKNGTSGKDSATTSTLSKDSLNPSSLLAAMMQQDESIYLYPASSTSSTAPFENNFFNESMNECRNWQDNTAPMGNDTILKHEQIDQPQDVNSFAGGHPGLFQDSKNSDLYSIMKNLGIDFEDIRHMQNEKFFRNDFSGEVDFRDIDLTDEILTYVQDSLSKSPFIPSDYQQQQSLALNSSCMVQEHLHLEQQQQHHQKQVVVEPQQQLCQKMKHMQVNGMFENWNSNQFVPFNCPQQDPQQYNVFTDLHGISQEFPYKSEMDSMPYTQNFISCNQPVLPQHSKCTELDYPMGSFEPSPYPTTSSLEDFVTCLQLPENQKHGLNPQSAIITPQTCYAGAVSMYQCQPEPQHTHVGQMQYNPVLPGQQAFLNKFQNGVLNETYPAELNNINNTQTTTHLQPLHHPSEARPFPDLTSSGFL

[4] = target: T1, Aryl hydrocarbon receptor; assay: Induction of Ahr signalling in human HaCaT cells assessed as upregulation of FLG expression incubated for 48 hrs; format: cell-based
Mus musculus [5] = assay: Anti-psoriatic activity in IMQ-induced BALB/c psoriasis mouse model assessed as reduction in IL-17a expression at 0.1 to 1 % treated topically by qRT-PCR analysis; format: functional, organism-based; details: dose 0.1-1 %
[6] = target: Voltage-gated inwardly rectifying potassium channel KCNH2 (Homo sapiens, UniProt Q12809); assay: Inhibition of hERG channel in HEK293 cells by whole-cell patch clamp assay; format: toxicity, cell-based
Cytochrome P450 3A4 = Cytochrome P450 3A4 (Homo sapiens, UniProt P08684); assay: Inhibition of CYP3A4 in human liver microsomes in presence of NADPH by LC-MS/MS analysis; format: ADME, Microsome
[7] = target: T1, Aryl hydrocarbon receptor; assay: Induction of Ahr signalling in human HaCaT cells assessed as upregulation of IVL expression incubated for 48 hrs; format: cell-based
[8] = Half life in Sprague-Dawley rat at 10 mg/kg, po measured up to 24 hrs by LC-MS/MS analysis; format: ADME, organism-based; details: in vivo
[9] = Solubility of the compound incubated for 48 hrs under shaking condition by LC/MS analysis; format: physicochemical
Cytochrome P450 2C19 = Cytochrome P450 2C19 (Homo sapiens, UniProt P33261); assay: Inhibition of CYP2C19 in human liver microsomes in presence of NADPH by LC-MS/MS analysis; format: ADME, Microsome
[10] = n-Octanol/water partition coefficient, logD of the compound at 1 mg incubated for 48 hrs under shaking condition by LC/MS analysis; format: physicochemical
[11] = Tmax in Sprague-Dawley rat at 10 mg/kg, po measured up to 24 hrs by LC-MS/MS analysis; format: ADME, organism-based; details: in vivo
Mus musculus [12] = assay: Anti-psoriatic activity in IMQ-induced BALB/c psoriasis mouse model assessed as reduction in skin thickening at 5 to 20 mg/kg, po by H and E staining based analysis; format: functional, organism-based; details: dose 5-20 mg/kg
Mus musculus [13] = assay: Anti-psoriatic activity in IMQ-induced BALB/c psoriasis mouse model assessed as reduction in IL-17f expression at 5 to 20 mg/kg, po by qRT-PCR analysis; format: functional, organism-based; details: dose 5-20 mg/kg
[14] = Cmax in Sprague-Dawley rat at 10 mg/kg, po measured up to 24 hrs by LC-MS/MS analysis; format: ADME, organism-based; set-up: time < 24 hrs, dose 10 mg/kg, route po; details: in vivo
[15] = Half life in Sprague-Dawley rat at 5 mg/kg, iv measured up to 24 hrs by LC-MS/MS analysis; format: ADME, organism-based; details: in vivo
[16] = target: T1, Aryl hydrocarbon receptor; assay: Agonist activity at AhR in human recombinant HepG2-Lucia AhR cell incubated for 24 hrs by luciferase reporter gene assay; format: cell-based
[17] = target: T1, Aryl hydrocarbon receptor; assay: Agonist activity at AhR signalling in human HaCaT cells assessed as increase in CYP1A1 mRNA expression by qRT-PCR analysis; format: cell-based; details: 10 µM, DDE = dose-dependent effect
[18] = Cytotoxicity against human BEAS-2B cells assessed as reduction in cell viability measured after 72 hrs by MTT assay; format: toxicity, cell-based
Mus musculus [19] = assay: Anti-psoriatic activity in IMQ-induced BALB/c psoriasis mouse model assessed as reduction in IL-17f expression at 0.1 to 1 % treated topically by qRT-PCR analysis; format: functional, organism-based; details: dose 0.1-1 %
Mus musculus [20] = assay: Anti-psoriatic activity in IMQ-induced BALB/c psoriasis mouse model assessed as reduction in erythema at 0.1 to 1 % treated topically by H and E staining based analysis; format: functional, organism-based; details: dose 0.1-1 %
[21] = MRT in Sprague-Dawley rat at 5 mg/kg, iv measured up to 24 hrs by LC-MS/MS analysis; format: ADME, organism-based; details: in vivo
[22] = Cytotoxicity against HEK293T cells assessed as reduction in cell viability measured after 72 hrs by MTT assay; format: toxicity, cell-based, HEK-293T; details: human

NAD(P)H dehydrogenase [quinone] 1 (Homo sapiens), sequence (P15559 whole entry): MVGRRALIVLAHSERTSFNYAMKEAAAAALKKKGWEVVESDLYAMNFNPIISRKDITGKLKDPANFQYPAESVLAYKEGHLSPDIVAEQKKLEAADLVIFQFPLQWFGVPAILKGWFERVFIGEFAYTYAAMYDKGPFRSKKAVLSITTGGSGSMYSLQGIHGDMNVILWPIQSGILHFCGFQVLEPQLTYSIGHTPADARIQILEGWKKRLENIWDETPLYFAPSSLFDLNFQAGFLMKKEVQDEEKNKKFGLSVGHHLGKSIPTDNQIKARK
Cytochrome P450 3A4, sequence (P08684 whole entry): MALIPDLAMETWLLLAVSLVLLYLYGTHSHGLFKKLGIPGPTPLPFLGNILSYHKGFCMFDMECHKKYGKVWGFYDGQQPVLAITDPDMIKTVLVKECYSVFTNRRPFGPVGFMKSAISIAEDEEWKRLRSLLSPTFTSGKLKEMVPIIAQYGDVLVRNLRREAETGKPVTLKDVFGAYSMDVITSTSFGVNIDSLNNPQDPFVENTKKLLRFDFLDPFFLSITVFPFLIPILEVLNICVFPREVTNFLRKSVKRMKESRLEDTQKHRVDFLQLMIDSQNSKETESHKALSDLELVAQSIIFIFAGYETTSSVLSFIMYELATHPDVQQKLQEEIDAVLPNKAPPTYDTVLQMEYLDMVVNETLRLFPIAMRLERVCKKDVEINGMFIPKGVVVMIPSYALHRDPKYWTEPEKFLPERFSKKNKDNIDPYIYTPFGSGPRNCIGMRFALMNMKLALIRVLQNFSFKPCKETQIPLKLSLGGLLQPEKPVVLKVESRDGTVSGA
Voltage-gated inwardly rectifying potassium channel KCNH2, sequence (Q12809 whole entry): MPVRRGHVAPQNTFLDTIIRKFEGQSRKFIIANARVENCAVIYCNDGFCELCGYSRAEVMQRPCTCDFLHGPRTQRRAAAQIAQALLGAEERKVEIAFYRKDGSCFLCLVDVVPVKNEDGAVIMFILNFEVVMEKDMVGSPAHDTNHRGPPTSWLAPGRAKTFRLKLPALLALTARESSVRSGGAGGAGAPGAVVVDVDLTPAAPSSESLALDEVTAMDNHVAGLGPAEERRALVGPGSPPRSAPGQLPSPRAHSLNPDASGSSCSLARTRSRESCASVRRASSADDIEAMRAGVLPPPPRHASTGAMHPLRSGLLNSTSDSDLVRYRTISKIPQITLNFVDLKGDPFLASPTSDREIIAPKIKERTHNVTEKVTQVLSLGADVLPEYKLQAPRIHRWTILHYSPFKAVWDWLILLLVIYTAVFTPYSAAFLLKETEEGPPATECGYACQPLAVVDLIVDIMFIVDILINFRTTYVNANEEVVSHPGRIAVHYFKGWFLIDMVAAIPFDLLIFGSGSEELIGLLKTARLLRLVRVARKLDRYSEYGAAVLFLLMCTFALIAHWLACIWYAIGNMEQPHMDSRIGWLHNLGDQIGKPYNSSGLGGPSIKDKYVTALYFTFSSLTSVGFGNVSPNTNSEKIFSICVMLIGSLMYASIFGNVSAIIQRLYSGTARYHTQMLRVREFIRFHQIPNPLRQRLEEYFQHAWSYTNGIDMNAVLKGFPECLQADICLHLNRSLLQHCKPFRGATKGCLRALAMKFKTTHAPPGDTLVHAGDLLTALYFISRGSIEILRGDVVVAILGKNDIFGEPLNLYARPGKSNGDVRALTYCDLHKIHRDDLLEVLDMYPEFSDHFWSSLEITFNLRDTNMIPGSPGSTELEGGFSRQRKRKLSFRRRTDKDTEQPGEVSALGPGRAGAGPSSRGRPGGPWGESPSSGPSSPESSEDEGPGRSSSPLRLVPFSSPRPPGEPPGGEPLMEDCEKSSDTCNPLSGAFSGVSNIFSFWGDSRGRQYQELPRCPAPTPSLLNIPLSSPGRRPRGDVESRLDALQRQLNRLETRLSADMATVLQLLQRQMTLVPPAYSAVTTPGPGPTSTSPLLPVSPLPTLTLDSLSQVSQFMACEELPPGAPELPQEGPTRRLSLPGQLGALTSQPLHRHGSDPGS
Cytochrome P450 2C19, sequence (P33261 whole entry): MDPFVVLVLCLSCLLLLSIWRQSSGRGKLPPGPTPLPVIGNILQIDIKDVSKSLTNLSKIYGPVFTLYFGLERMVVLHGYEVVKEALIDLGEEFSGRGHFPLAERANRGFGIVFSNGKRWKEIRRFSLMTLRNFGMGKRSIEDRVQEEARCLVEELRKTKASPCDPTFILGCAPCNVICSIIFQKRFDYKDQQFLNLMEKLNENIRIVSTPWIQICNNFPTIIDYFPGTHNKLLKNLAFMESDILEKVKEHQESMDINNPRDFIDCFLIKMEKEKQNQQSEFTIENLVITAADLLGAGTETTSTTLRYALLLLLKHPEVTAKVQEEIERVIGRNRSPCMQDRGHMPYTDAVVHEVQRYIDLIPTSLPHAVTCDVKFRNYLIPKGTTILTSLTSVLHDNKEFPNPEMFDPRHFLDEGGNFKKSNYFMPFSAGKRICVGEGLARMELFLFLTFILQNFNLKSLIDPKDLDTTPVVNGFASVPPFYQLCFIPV

Brc1ccc(-c2nc3ccc(Br)cn3n2)cc1
Activity [1]: Active
Vd [2]: 1.02 L/kg
Activity [3]: Active
Activity [4]: Active
Activity (Mus musculus [5]): Active
IC50 [6]: > 10 µM
IC50 (Cytochrome P450 3A4): > 10 µM
Activity [7]: Active
half-life [8]: 418 min
solubility thermodynamic at 48 h [9]: 17.2 µg/mL (≈ 48.6 µM)
IC50 (Cytochrome P450 2C19): > 10 µM
logD at 48 h [10]: 2.97
Tmax [11]: 49.8 min
Activity (Mus musculus [12]): Active
Activity (Mus musculus [13]): Active
Cmax [14]: 685 ng/mL
half-life [15]: 48.6 min
EC50 [16]: 0.03 nM
Activity [17]: Dde
IC50 at 72 h [18]: > 300 µM
Activity (Mus musculus [19]): Active
Activity (Mus musculus [20]): Active
MRT [21]: 53.4 min
IC50 at 72 h [22]: > 300 µM
